Measurements taken from the supplement of paper PMC10307832.

Tests used:
Experiment in all cases: relative viability (nuclei count vs DMSO), 5 days (fraction); higher = more cells survive
YM155 + Phenformin = compound: COCC[n+]1c2c(n(Cc3cnccn3)c1C)C(=O)c1ccccc1C2=O [YM155] + N=C(N)NC(=N)NCCc1ccccc1 [Phenformin] (partner 250 µM)
Method in brief: (§1)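 For relative viability, nuclei counts in treated wells were divided by those in vehicle wells. Lung cancer cell lines had been pin-tool dosed in 1536-well plates the day after seeding and cultured for 5 days, then fixed and stained in one step (final 0.05% Triton X-100, 1% formaldehyde, 1 ug/ml Hoechst) and imaged at 4×. Doses were one drug alone or a fixed anchor-drug dose plus five library-drug doses (not always all listed) in √10 steps, and values are duplicate-plate medians.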

YM155 + Foretinib = compound: COCC[n+]1c2c(n(Cc3cnccn3)c1C)C(=O)c1ccccc1C2=O [YM155] + COc1cc2c(Oc3ccc(NC(=O)C4(C(=O)Nc5ccc(F)cc5)CC4)cc3F)ccnc2cc1OCCCN1CCOCC1 [Foretinib] (partner 0.25 µM)
Method in brief: as §1

Quizartinib + Dasatinib = compound: CC(C)(C)c1cc(NC(=O)Nc2ccc(-c3cn4c(n3)sc3cc(OCCN5CCOCC5)ccc34)cc2)no1 [Quizartinib] + Cc1nc(Nc2ncc(C(=O)Nc3c(C)cccc3Cl)s2)cc(N2CCN(CCO)CC2)n1 [Dasatinib] (partner 0.075 µM)
Method in brief: as §1

Quizartinib + Alpelisib = compound: CC(C)(C)c1cc(NC(=O)Nc2ccc(-c3cn4c(n3)sc3cc(OCCN5CCOCC5)ccc34)cc2)no1 [Quizartinib] + Cc1nc(NC(=O)N2CCC[C@H]2C(N)=O)sc1-c1ccnc(C(C)(C)C(F)(F)F)c1 [Alpelisib] (partner 2 µM)
Method in brief: as §1

Cell Line | relative viability (YM155 + Phenformin; first compound 0.002 µM) | relative viability (YM155 + Phenformin; first compound 0.006325 µM) | relative viability (YM155 + Phenformin; first compound 0.02 µM) | relative viability (YM155 + Phenformin; first compound 0.06325 µM) | relative viability (YM155 + Foretinib; first compound 0.002 µM) | relative viability (YM155 + Foretinib; first compound 0.006325 µM) | relative viability (YM155 + Foretinib; first compound 0.02 µM) | relative viability (YM155 + Foretinib; first compound 0.06325 µM) | relative viability (Quizartinib + Dasatinib; first compound 0.001 µM) | relative viability (Quizartinib + Dasatinib; first compound 0.003162 µM) | relative viability (Quizartinib + Dasatinib; first compound 0.01 µM) | relative viability (Quizartinib + Dasatinib; first compound 0.03162 µM) | relative viability (Quizartinib + Dasatinib; first compound 0.1 µM) | relative viability (Quizartinib + Alpelisib; first compound 0.001 µM) | relative viability (Quizartinib + Alpelisib; first compound 0.003162 µM) | relative viability (Quizartinib + Alpelisib; first compound 0.01 µM) | relative viability (Quizartinib + Alpelisib; first compound 0.03162 µM) | relative viability (Quizartinib + Alpelisib; first compound 0.1 µM)
SK-LU-1 | 0.487 | 0.499 | 0.566 | 0.588 | 0.766 | 0.738 | 0.904 | 0.661 | 0.178 | 0.169 | 0.204 | 0.183 | 0.232 | 0.96 | 0.876 | 1.17 | 0.982 | 0.81
LK-2 | 0.356 | 0.571 | 0.447 | 0.379 | 1.02 | 1.32 | 1.29 | 1.22 | 0.31 |  | 0.313 | 0.205 | 0.284 | 1.14 | 1.08 | 1.04 | 1.03 | 1.06
NCI-H596 | 0.65 | 0.718 | 0.861 | 0.741 | 0.79 | 0.833 | 0.946 | 0.829 | 0.658 | 0.546 | 0.578 | 0.592 | 0.495 | 0.521 | 0.498 | 1.34 | 0.407 | 0.396
UMC-11 | 0.3 | 0.355 | 0.363 | 0.328 | 0.966 | 1.1 | 1.08 | 1.12 |  | 0.386 | 0.487 | 0.434 | 0.454 | 0.924 | 0.948 | 1.13 | 0.947 | 1.1
NCI-H1355 | 0.442 | 0.46 | 0.493 | 0.499 | 0.932 | 1.02 | 1.06 | 0.964 | 0.719 | 0.762 | 0.684 | 0.747 | 0.66 | 0.814 | 0.927 | 0.812 | 0.865 | 0.827
NCI-H2228 | 0.304 | 0.272 | 0.375 | 0.338 | 0.772 | 0.912 | 0.867 | 0.708 | 0.608 | 0.413 | 0.597 | 0.494 | 0.509 | 0.771 | 0.58 | 0.79 | 0.721 | 0.678
NCI-H2170 | 0.416 | 0.4 | 0.413 | 0.408 | 1 | 0.983 | 1 | 1.09 | 0.721 | 0.422 | 0.591 | 0.625 | 0.497 | 0.769 | 0.683 | 0.956 | 0.787 | 0.809
NCI-H727 | 0.532 | 0.522 | 0.634 | 0.689 | 0.951 | 0.902 | 1.14 | 1.03 |  | 0.377 | 0.411 | 0.322 | 0.318 | 0.482 |  | 0.588 | 0.586 | 0.556
NCI-H460 | 0.518 | 0.531 | 0.546 | 0.477 | 0.957 | 1.04 | 1.01 | 0.919 | 0.481 | 0.551 | 0.413 | 0.307 | 0.422 | 0.358 | 0.458 | 0.463 |  | 0.406
NCI-H647 | 0.49 | 0.636 | 0.587 | 0.491 | 1.21 | 1.11 | 0.981 | 0.474 | 0.173 | 0.181 | 0.178 | 0.199 | 0.185 | 1.01 | 1.06 | 1.25 | 1.13 | 1.33
NCI-H358 | 0.325 | 0.315 | 0.37 | 0.351 | 0.653 | 0.699 | 0.736 | 0.37 | 0.136 | 0.188 | 0.164 | 0.167 | 0.144 | 0.693 | 0.89 | 0.815 |  | 0.753
HOP-62 | 0.566 | 0.648 | 0.658 | 0.6 | 0.979 | 1.04 | 1.17 | 1.02 | 0.564 | 0.589 | 0.638 | 0.652 | 0.662 | 0.75 | 0.706 | 1.19 | 1.26 | 0.907
NCI-H1993 | 0.463 | 0.547 | 0.488 | 0.512 | 0.659 | 0.709 | 0.811 | 0.64 | 0.636 | 0.478 | 0.58 | 0.644 | 0.662 | 0.668 | 0.638 | 0.614 | 0.65 | 0.642
A-427 | 0.314 | 0.39 | 0.365 | 0.333 | 1.08 | 0.984 | 0.976 | 1.05 |  | 0.718 | 0.706 | 0.657 | 0.663 | 1.06 | 1 | 1.12 | 1.06 | 1.04
COR-L23 | 0.399 | 0.446 | 0.451 | 0.393 | 0.941 | 0.866 | 0.658 | 0.244 | 0.452 | 0.437 | 0.557 | 0.414 | 0.461 | 0.725 | 0.708 | 0.843 | 0.61 | 0.759
NCI-H2023 | 0.361 | 0.403 | 0.411 | 0.422 | 0.999 | 0.662 | 0.767 | 0.368 | 0.428 | 0.507 | 0.634 |  | 0.613 | 0.562 | 0.467 | 0.665 | 0.323 | 0.575
NCI-H661 | 0.257 | 0.245 | 0.264 | 0.288 | 1.03 | 1.02 | 1.03 | 0.494 | 0.756 | 0.896 | 1.09 | 0.837 | 0.887 | 0.594 | 0.708 | 0.384 | 0.565 | 0.905
NCI-H322M | 0.775 | 0.837 | 0.849 | 0.852 | 1.02 | 1.08 | 0.931 | 0.981 | 0.208 | 0.255 | 0.27 | 0.265 | 0.266 | 0.707 | 0.779 | 0.799 | 0.758 | 0.787
